From article PMC9481151, “Discovery of new symmetrical and asymmetrical nitrile-containing 1,4-dihydropyridine derivatives as dual kinases and P-glycoprotein inhibitors: synthesis, in vitro assays, and in silico studies” (Journal of Enzyme Inhibition and Medicinal Chemistry, 2022)

How the values were obtained:
A498 = assay: NCI single dose (10 µM) SRB screen; assay type: cell-based, human; conditions: renal cancer, 48 h
K-562 = assay: NCI single dose (10 µM) SRB screen; assay type: cell-based, human; conditions: leukaemia, 48 h
M14 = assay: NCI single dose (10 µM) SRB screen; assay type: cell-based, human; conditions: melanoma, 48 h
MCF7 = assay: NCI single dose (10 µM) SRB screen; assay type: cell-based, human; conditions: breast cancer, 48 h
Escherichia coli = assay: Agar well diffusion method; conditions: relative to ciprofloxacin
SN12C = assay: NCI single dose (10 µM) SRB screen; assay type: cell-based, human; conditions: renal cancer, 48 h
Candida albicans = assay: Agar well diffusion method; conditions: relative to clotrimazole
IGROV1 = assay: NCI single dose (10 µM) SRB screen; assay type: cell-based, human; conditions: ovarian cancer, 48 h
ACHN = assay: NCI single dose (10 µM) SRB screen; assay type: cell-based, human; conditions: renal cancer, 48 h
UO-31 = assay: NCI single dose (10 µM) SRB screen; assay type: cell-based, human; conditions: renal cancer, 48 h
SR = assay: NCI single dose (10 µM) SRB screen; assay type: cell-based, human; conditions: leukaemia, 48 h
HS578T = assay: NCI single dose (10 µM) SRB screen; assay type: cell-based, human; conditions: breast cancer, 48 h
TK-10 = assay: NCI single dose (10 µM) SRB screen; assay type: cell-based, human; conditions: renal cancer, 48 h
HCT-116 = assay: NCI single dose (10 µM) SRB screen; assay type: cell-based, human; conditions: colon cancer, 48 h
NCI-H460 = assay: NCI single dose (10 µM) SRB screen; assay type: cell-based, human; conditions: non-small cell lung cancer, 48 h
SK-MEL-28 = assay: NCI single dose (10 µM) SRB screen; assay type: cell-based, human; conditions: melanoma, 48 h
MDA-MB-468 = assay: NCI single dose (10 µM) SRB screen; assay type: cell-based, human; conditions: breast cancer, 48 h
Bacillus subtilis = assay: Agar well diffusion method; conditions: relative to ciprofloxacin
Aspergillus flavus = assay: Agar well diffusion method; conditions: relative to clotrimazole
NCI-H226 = assay: NCI single dose (10 µM) SRB screen; assay type: cell-based, human; conditions: non-small cell lung cancer, 48 h
CAKI-1 = assay: NCI single dose (10 µM) SRB screen; assay type: cell-based, human; conditions: renal cancer, 48 h
NCI-H522 = assay: NCI single dose (10 µM) SRB screen; assay type: cell-based, human; conditions: non-small cell lung cancer, 48 h
SNB-75 = assay: NCI single dose (10 µM) SRB screen; assay type: cell-based, human; conditions: CNS cancer, 48 h
COLO 205 = assay: NCI single dose (10 µM) SRB screen; assay type: cell-based, human; conditions: colon cancer, 48 h
PC-3 = assay: NCI single dose (10 µM) SRB screen; assay type: cell-based, human; conditions: prostate cancer, 48 h
BT-549 = assay: NCI single dose (10 µM) SRB screen; assay type: cell-based, human; conditions: breast cancer, 48 h
HL-60(TB) = assay: NCI single dose (10 µM) SRB screen; assay type: cell-based, human; conditions: leukaemia, 48 h
EKVX = assay: NCI single dose (10 µM) SRB screen; assay type: cell-based, human; conditions: non-small cell lung cancer, 48 h
CCRF-CEM = assay: NCI single dose (10 µM) SRB screen; assay type: cell-based, human; conditions: leukaemia, 48 h
NCI-H23 = assay: NCI single dose (10 µM) SRB screen; assay type: cell-based, human; conditions: non-small cell lung cancer, 48 h
MOLT-4 = assay: NCI single dose (10 µM) SRB screen; assay type: cell-based, human; conditions: leukaemia, 48 h
OVCAR-8 = assay: NCI single dose (10 µM) SRB screen; assay type: cell-based, human; conditions: ovarian cancer, 48 h
MALME-3M = assay: NCI single dose (10 µM) SRB screen; assay type: cell-based, human; conditions: melanoma, 48 h
SW-620 = assay: NCI single dose (10 µM) SRB screen; assay type: cell-based, human; conditions: colon cancer, 48 h
SK-OV-3 = assay: NCI single dose (10 µM) SRB screen; assay type: cell-based, human; conditions: ovarian cancer, 48 h
OVCAR-5 = assay: NCI single dose (10 µM) SRB screen; assay type: cell-based, human; conditions: ovarian cancer, 48 h
786-0 = assay: NCI single dose (10 µM) SRB screen; assay type: cell-based, human; conditions: renal cancer, 48 h
NCI-H322M = assay: NCI single dose (10 µM) SRB screen; assay type: cell-based; conditions: non-small cell lung cancer, 48 h
MDA-MB-231 = assay: NCI single dose (10 µM) SRB screen; assay type: cell-based, human; conditions: breast cancer, 48 h
SF-268 = assay: NCI single dose (10 µM) SRB screen; assay type: cell-based, human; conditions: CNS cancer, 48 h
SK-MEL-2 = assay: NCI single dose (10 µM) SRB screen; assay type: cell-based, human; conditions: melanoma, 48 h
LOX IMVI = assay: NCI single dose (10 µM) SRB screen; assay type: cell-based, human; conditions: melanoma, 48 h
HT29 = assay: NCI single dose (10 µM) SRB screen; assay type: cell-based, human; conditions: colon cancer, 48 h
OVCAR-3 = assay: NCI single dose (10 µM) SRB screen; assay type: cell-based, human; conditions: ovarian cancer, 48 h
Pseudomonas aeruginosa = assay: Agar well diffusion method; conditions: relative to ciprofloxacin
NCI 60 cancer cell lines = assay: NCI single dose (10 µM) SRB screen, mean over panel; assay type: cell-based, human; conditions: mean over 60 cell lines, 48 h
KM12 = assay: NCI single dose (10 µM) SRB screen; assay type: cell-based, human; conditions: colon cancer, 48 h
T-47D = assay: NCI single dose (10 µM) SRB screen; assay type: cell-based, human; conditions: breast cancer, 48 h
UACC-257 = assay: NCI single dose (10 µM) SRB screen; assay type: cell-based, human; conditions: melanoma, 48 h
RPMI-8226 = assay: NCI single dose (10 µM) SRB screen; assay type: cell-based, human; conditions: leukaemia, 48 h
OVCAR-4 = assay: NCI single dose (10 µM) SRB screen; assay type: cell-based, human; conditions: ovarian cancer, 48 h
Staphylococcus aureus = assay: Agar well diffusion method; conditions: relative to ciprofloxacin
SF-539 = assay: NCI single dose (10 µM) SRB screen; assay type: cell-based, human; conditions: CNS cancer, 48 h
HOP-62 = assay: NCI single dose (10 µM) SRB screen; assay type: cell-based, human; conditions: non-small cell lung cancer, 48 h
NCI/ADR-RES = assay: NCI single dose (10 µM) SRB screen; assay type: cell-based, human; conditions: ovarian cancer, 48 h
A549/ATCC = assay: NCI single dose (10 µM) SRB screen; assay type: cell-based, human; conditions: non-small cell lung cancer, 48 h
RXF 393 = assay: NCI single dose (10 µM) SRB screen; assay type: cell-based, human; conditions: renal cancer, 48 h
HCT-15 = assay: NCI single dose (10 µM) SRB screen; assay type: cell-based, human; conditions: colon cancer, 48 h
SK-MEL-5 = assay: NCI single dose (10 µM) SRB screen; assay type: cell-based, human; conditions: melanoma, 48 h
HCC-2998 = assay: NCI single dose (10 µM) SRB screen; assay type: cell-based, human; conditions: colon cancer, 48 h
U251 = assay: NCI single dose (10 µM) SRB screen; assay type: cell-based, human; conditions: CNS cancer, 48 h
SNB-19 = assay: NCI single dose (10 µM) SRB screen; assay type: cell-based, human; conditions: CNS cancer, 48 h
SF-295 = assay: NCI single dose (10 µM) SRB screen; assay type: cell-based, human; conditions: CNS cancer, 48 h
HOP-92 = assay: NCI single dose (10 µM) SRB screen; assay type: cell-based, human; conditions: non-small cell lung cancer, 48 h
UACC-62 = assay: NCI single dose (10 µM) SRB screen; assay type: cell-based, human; conditions: melanoma, 48 h
DU-145 = assay: NCI single dose (10 µM) SRB screen; assay type: cell-based, human; conditions: prostate cancer, 48 h
MDA-MB-435 = assay: NCI single dose (10 µM) SRB screen; assay type: cell-based, human; conditions: melanoma, 48 h

melting point: 146 to 148 °C
SMILES: CC1=C(C(=O)OCC(C)C)C(c2cccc(C#N)c2)C(C(=O)OCC(C)C)=C(C)N1 [Compound 1d, Diisobutyl 4-(3-cyanophenyl)-2,6-dimethyl-1,4-dihydropyridine-3,5-dicarboxylate]
GI% A498 (A498): 17%
GI% K-562 (K-562): 44%
GI% M14 (M14): – (Only GI% ≥ 10 are shown)
GI% MCF7 (MCF7): 39%
% activity index, E. coli (Escherichia coli): – (Values below 25 are of limited value and not shown as they refer either to inactive or non-diffusing compounds)
GI% SN12C (SN12C): 10%
% activity index, C. albicans (Candida albicans): – (Values below 25 are of limited value and not shown as they refer either to inactive or non-diffusing compounds)
GI% IGROV1 (IGROV1): – (Only GI% ≥ 10 are shown)
GI% ACHN (ACHN): 16%
GI% UO-31 (UO-31): 20%
GI% SR (SR): 52%
GI% HS578T (HS578T): 25%
GI% TK-10 (TK-10): – (Only GI% ≥ 10 are shown)
GI% HCT-116 (HCT-116): 32%
GI% NCI-H460 (NCI-H460): 13%
GI% SK-MEL-28 (SK-MEL-28): – (Only GI% ≥ 10 are shown)
GI% MDA-MB-468 (MDA-MB-468): 30%
% activity index, B. subtilis (Bacillus subtilis): – (Values below 25 are of limited value and not shown as they refer either to inactive or non-diffusing compounds)
% activity index, A. flavus (Aspergillus flavus): – (Values below 25 are of limited value and not shown as they refer either to inactive or non-diffusing compounds)
GI% NCI-H226 (NCI-H226): 25%
GI% CAKI-1 (CAKI-1): 38%
GI% NCI-H522 (NCI-H522): 21%
GI% SNB-75 (SNB-75): 32%
GI% COLO 205 (COLO 205): – (Only GI% ≥ 10 are shown)
GI% PC-3 (PC-3): 57%
GI% BT-549 (BT-549): – (Only GI% ≥ 10 are shown)
GI% HL-60(TB) (HL-60(TB)): 30%
GI% EKVX (EKVX): 27%
GI% CCRF-CEM (CCRF-CEM): 32%
GI% NCI-H23 (NCI-H23): 14%
GI% MOLT-4 (MOLT-4): 57%
GI% OVCAR-8 (OVCAR-8): 11%
GI% MALME-3M (MALME-3M): – (Only GI% ≥ 10 are shown)
GI% SW-620 (SW-620): – (Only GI% ≥ 10 are shown)
GI% SK-OV-3 (SK-OV-3): – (Only GI% ≥ 10 are shown)
GI% OVCAR-5 (OVCAR-5): – (Only GI% ≥ 10 are shown)
GI% 786-0 (786-0): 18%
GI% NCI-H322M (NCI-H322M): – (Only GI% ≥ 10 are shown)
GI% MDA-MB-231 (MDA-MB-231): 17%
GI% SF-268 (SF-268): 25%
GI% SK-MEL-2 (SK-MEL-2): 14%
GI% LOX IMVI (LOX IMVI): 10%
GI% HT29 (HT29): 12%
GI% OVCAR-3 (OVCAR-3): 10%
% activity index, P. aeruginosa (Pseudomonas aeruginosa): – (Values below 25 are of limited value and not shown as they refer either to inactive or non-diffusing compounds)
Mean GI% (NCI 60 cancer cell lines): 19%
GI% KM12 (KM12): 24%
GI% T-47D (T-47D): 54%
GI% UACC-257 (UACC-257): 17%
GI% RPMI-8226 (RPMI-8226): 35%
GI% OVCAR-4 (OVCAR-4): 16%
% activity index, S. aureus (Staphylococcus aureus): – (Values below 25 are of limited value and not shown as they refer either to inactive or non-diffusing compounds)
GI% SF-539 (SF-539): 12%
GI% HOP-62 (HOP-62): 12%
GI% NCI/ADR-RES (NCI/ADR-RES): 20%
GI% A549/ATCC (A549/ATCC): 25%
GI% RXF 393 (RXF 393): 42%
GI% HCT-15 (HCT-15): 31%
GI% SK-MEL-5 (SK-MEL-5): 17%
GI% HCC-2998 (HCC-2998): – (Only GI% ≥ 10 are shown)
GI% U251 (U251): 21%
GI% SNB-19 (SNB-19): – (Only GI% ≥ 10 are shown)
GI% SF-295 (SF-295): 32%
GI% HOP-92 (HOP-92): 37%
GI% UACC-62 (UACC-62): 23%
GI% DU-145 (DU-145): – (Only GI% ≥ 10 are shown)
GI% MDA-MB-435 (MDA-MB-435): – (Only GI% ≥ 10 are shown)
